These results are taken from patent US9309301B2 (priority 2011, dated 2016).

Read-outs that look alike come from different tables or passages of the source. Square brackets hold non-standard residues; d marks the D form. Primed or numbered codes have the meaning given here. Ends that are not written are not given here. 40K‑TE PEG(4) = 40 kDa PEG bound to Cys thiol via thioether (from iodoacetyl-PEG); Aib = CC(C)(N)C(=O)O

Common to all, as to format: cell-based
The target of one experiment is T1, GIP receptor (Homo sapiens, UniProt P48546).
T1 construct: expressed in transfected cells; host or cells: HEK293
T1 sequence (P48546 22-466): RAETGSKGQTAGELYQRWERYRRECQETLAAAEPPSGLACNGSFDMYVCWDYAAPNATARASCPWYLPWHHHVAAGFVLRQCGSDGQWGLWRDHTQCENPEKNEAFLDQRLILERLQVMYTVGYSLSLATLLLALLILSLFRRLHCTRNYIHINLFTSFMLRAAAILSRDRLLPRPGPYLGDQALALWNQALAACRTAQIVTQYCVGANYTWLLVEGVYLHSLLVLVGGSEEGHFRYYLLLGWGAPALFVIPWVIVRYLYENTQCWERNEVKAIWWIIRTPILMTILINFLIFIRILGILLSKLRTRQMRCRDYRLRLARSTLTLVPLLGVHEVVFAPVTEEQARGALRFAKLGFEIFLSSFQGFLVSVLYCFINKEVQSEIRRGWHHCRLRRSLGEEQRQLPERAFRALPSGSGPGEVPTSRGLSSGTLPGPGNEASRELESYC
The experiment can be described thus: in vitro agonist activity at the GIP receptor (cAMP induction, luciferase reporter, HEK293 cells). The settings on record: CRE-luciferase reporter. Here is the method: It is understood that a lower EC50 indicates higher activity or potency at the receptor. […] The ability of each peptide to induce cAMP was measured in a firefly luciferase-based reporter assay. […] At the end of the incubation, 100 μL of LucLite luminescence substrate reagent (Perkin Elmer, Wellesley, Mass.) were added to each well. […] In some instances, the in vitro agonist activity at the GIP receptor was also tested.

In the next experiment the target is T2, glucagon receptor (Homo sapiens, UniProt P47871).
T2 construct: expressed in transfected cells; host or cells: HEK293
T2 sequence (P47871 26-477, species assumed): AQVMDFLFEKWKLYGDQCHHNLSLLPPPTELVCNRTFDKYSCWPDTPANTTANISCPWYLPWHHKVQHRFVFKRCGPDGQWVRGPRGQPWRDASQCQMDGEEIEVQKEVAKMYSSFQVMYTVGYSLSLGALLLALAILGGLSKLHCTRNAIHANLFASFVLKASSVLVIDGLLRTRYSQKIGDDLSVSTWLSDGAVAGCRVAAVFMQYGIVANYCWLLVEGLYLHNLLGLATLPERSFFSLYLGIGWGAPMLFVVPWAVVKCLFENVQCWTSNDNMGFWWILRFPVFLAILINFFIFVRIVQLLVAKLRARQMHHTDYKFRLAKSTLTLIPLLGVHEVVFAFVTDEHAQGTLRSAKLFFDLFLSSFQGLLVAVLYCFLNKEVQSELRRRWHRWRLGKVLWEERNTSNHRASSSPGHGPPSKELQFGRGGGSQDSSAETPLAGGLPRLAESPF
The experiment can be described thus: cAMP induction, firefly luciferase reporter assay in HEK293 cells co-transfected with glucagon receptor. Here is the method: (§1) The ability of each peptide to induce cAMP was measured in a firefly luciferase-based reporter assay. […] At the end of the incubation, 100 μL of LucLite luminescence substrate reagent (Perkin Elmer, Wellesley, Mass.) were added to each well. […] In some instances, the in vitro agonist activity at the GIP receptor was also tested.

The target of a further experiment is T3, GLP-1 receptor (Homo sapiens, UniProt P43220).
T3 construct: expressed in transfected cells; host or cells: HEK293
T3 sequence (P43220 24-463): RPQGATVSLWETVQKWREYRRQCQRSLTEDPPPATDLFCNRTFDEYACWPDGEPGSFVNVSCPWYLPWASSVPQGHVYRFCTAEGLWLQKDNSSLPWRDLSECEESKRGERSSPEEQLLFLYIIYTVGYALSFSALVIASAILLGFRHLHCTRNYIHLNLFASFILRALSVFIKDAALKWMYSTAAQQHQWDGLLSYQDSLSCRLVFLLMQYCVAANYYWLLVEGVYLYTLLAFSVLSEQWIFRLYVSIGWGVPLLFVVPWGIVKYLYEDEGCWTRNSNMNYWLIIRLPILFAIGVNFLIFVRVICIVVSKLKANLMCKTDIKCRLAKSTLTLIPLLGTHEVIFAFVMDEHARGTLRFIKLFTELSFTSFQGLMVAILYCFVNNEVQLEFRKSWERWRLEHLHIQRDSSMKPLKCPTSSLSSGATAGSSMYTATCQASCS
The experiment can be described thus: cAMP induction, firefly luciferase reporter assay in HEK293 cells co-transfected with GLP-1 receptor. As to the method: as §1

[1] abbreviates: read-out: EC50 (nM) at glucagon receptor, CRE-luciferase reporter, 5 hours incubation.
[2] abbreviates: read-out: EC50 (nM) at GLP-1 receptor, CRE-luciferase reporter, 5 hours incubation.
[3] abbreviates: CRE-luciferase reporter, 5 hours incubation.

In the case of `CCCCCCCCCCCCCCCC(=O)N[C@@H](CCC(=O)NCCCC[C@H](NC(=O)[C@H](CC(=O)O)NC(=O)[C@H](CO)NC(=O)[C@@H](NC(=O)[C@H](Cc1ccccc1)NC(=O)[C@@H](NC(=O)CNC(=O)[C@H](CCC(N)=O)NC(=O)[C@@H](CO)NC(=O)[C@@H](N)Cc1c[nH]cn1)[C@@H](C)O)[C@@H](C)O)C(=O)N[C@@H](CO)C(=O)N[C@@H](CCCCN)C(=O)N[C@@H](Cc1ccc(O)cc1)C(=O)N[C@@H](CC(C)C)C(=O)N[C@@H](CC(=O)O)C(=O)N[C@@H](CCC(=O)O)C(=O)N[C@@H](CCC(N)=O)C(=O)N[C@@H](C)C(=O)N[C@@H](C)C(=O)N[C@@H](CCCCN)C(=O)N[C@@H](CCC(=O)O)C(=O)N[C@@H](Cc1ccccc1)C(=O)N[C@H](C(=O)N[C@@H](CS)C(=O)N[C@@H](Cc1c[nH]c2ccccc12)C(=O)N[C@@H](CC(C)C)C(=O)N[C@@H](CC(C)C)C(=O)N[C@@H](CC(=O)O)C(=O)N[C@H](C(=O)N[C@@H](CCC(=O)O)C(N)=O)[C@@H](C)O)[C@@H](C)CC)C(=O)O` [compound 65], at GIP receptor, the midpoint of the response, the EC50, lay at 47.1 nM.

Regarding “38 (H[Aib]QGTFTSDYSKYLD[Aib]KRA[Aib]EFVC(PEG 40 kDa)WLLDT-NH2) [compound 38]”, the “EC50 (nM) at GIP receptor” value in the experiment with GIP receptor is “no activity”.

Turning to “47 (H[Aib]QGTFTSDYSKYLDEKRA[Aib]EFVC(PEG 40 kDa)WLLDGGPSSGAPPPS-NH2) [compound 47]”, the “EC50 (nM) at GIP receptor” value in the experiment with GIP receptor was “no activity”.

With “41 (H[Aib]QGTFTSDYSKYLDEKRA[Aib]EFVC(PEG 40 kDa)WLL[Aib]T-NH2) [compound 41]”, the “EC50 (nM) at GIP receptor” value with GIP receptor is listed as “no activity”.

Consider “52 (H[Aib]QGTFTSDYSKYLDEK[Aib]AKEFVC(PEG 40 kDa)WLLDT-NH2) [compound 52]”, for which the “EC50 (nM) at GIP receptor” value with GIP receptor is reported as “no activity”.

As for `CC(C)C[C@H](NC(=O)[C@H](Cc1ccc(O)cc1)NC(=O)[C@H](CCCCN)NC(=O)[C@H](CO)NC(=O)[C@H](CCCCNC(=O)CC[C@H](NC(=O)CC12CC3CC(CC(C3)C1)C2)C(=O)O)NC(=O)[C@H](CC(=O)O)NC(=O)[C@H](CO)NC(=O)[C@@H](NC(=O)[C@H](Cc1ccccc1)NC(=O)[C@@H](NC(=O)CNC(=O)[C@H](CCC(N)=O)NC(=O)[C@@H](CO)NC(=O)[C@@H](N)Cc1c[nH]cn1)[C@@H](C)O)[C@@H](C)O)C(=O)N[C@@H](CC(=O)O)C(=O)N[C@@H](CCC(=O)O)C(=O)N[C@@H](CCCNC(=N)N)C(=O)N[C@@H](C)C(=O)N[C@@H](C)C(=O)N[C@@H](CCC(N)=O)C(=O)N[C@@H](CC(=O)O)C(=O)N[C@@H](Cc1ccccc1)C(=O)N[C@H](C(=O)N[C@@H](CCC(N)=O)C(=O)N[C@@H](Cc1c[nH]c2ccccc12)C(=O)N[C@@H](CC(C)C)C(=O)N[C@@H](CC(C)C)C(=O)N[C@@H](CC(=O)O)C(=O)N[C@H](C(N)=O)[C@@H](C)O)C(C)C` [compound 48], the figures for the EC50 on glucagon receptor (setting [1]) and on GLP-1 receptor (setting [2]) were 0.026 nM and 0.039 nM, respectively.

Take `CC(C)C[C@H](NC(=O)[C@H](CC(C)C)NC(=O)[C@H](Cc1c[nH]c2ccccc12)NC(=O)[C@H](CCC(N)=O)NC(=O)[C@@H](NC(=O)[C@H](Cc1ccccc1)NC(=O)[C@H](CC(=O)O)NC(=O)[C@H](CCC(N)=O)NC(=O)[C@H](C)NC(=O)[C@H](C)NC(=O)[C@H](CCCNC(=N)N)NC(=O)[C@H](CCC(=O)O)NC(=O)[C@H](CC(=O)O)NC(=O)[C@H](CC(C)C)NC(=O)[C@H](Cc1ccc(O)cc1)NC(=O)[C@H](CCCCN)NC(=O)[C@H](CO)NC(=O)[C@H](CCCCNC(=O)CCC(=O)c1ccccc1)NC(=O)[C@H](CC(=O)O)NC(=O)[C@H](CO)NC(=O)[C@@H](NC(=O)[C@H](Cc1ccccc1)NC(=O)[C@@H](NC(=O)CNC(=O)[C@H](CCC(N)=O)NC(=O)[C@@H](CO)NC(=O)[C@@H](N)Cc1c[nH]cn1)[C@@H](C)O)[C@@H](C)O)C(C)C)C(=O)N[C@@H](CC(=O)O)C(=O)NCC(=O)NCC(=O)N1CCC[C@H]1C(=O)N[C@@H](CO)C(=O)N[C@@H](CO)C(=O)NCC(=O)N[C@@H](C)C(=O)N1CCC[C@H]1C(=O)N1CCC[C@H]1C(=O)N1CCC[C@H]1C(=O)N[C@@H](CO)C(N)=O` [compound 49]: the EC50 on glucagon receptor (setting [3]) turned out to be 0.063 nM; on GLP-1 receptor (setting [3]), 0.01 nM.

`CCCCCCCCCCCCCCCC(=O)N[C@@H](CCC(=O)NCCCC[C@H](NC(=O)[C@H](CC(=O)O)NC(=O)[C@H](CO)NC(=O)[C@@H](NC(=O)[C@H](Cc1ccccc1)NC(=O)[C@@H](NC(=O)CNC(=O)[C@H](CCC(N)=O)NC(=O)[C@@H](CO)NC(=O)[C@@H](N)Cc1c[nH]cn1)[C@@H](C)O)[C@@H](C)O)C(=O)N[C@@H](CO)C(=O)N[C@@H](CCCCN)C(=O)N[C@@H](Cc1ccc(O)cc1)C(=O)N[C@@H](CC(C)C)C(=O)N[C@@H](CC(=O)O)C(=O)N[C@@H](CCC(=O)O)C(=O)N[C@@H](CCC(N)=O)C(=O)N[C@@H](C)C(=O)N[C@@H](C)C(=O)N[C@@H](CCCCN)C(=O)N[C@@H](CCC(=O)O)C(=O)N[C@@H](Cc1ccccc1)C(=O)N[C@H](C(=O)N[C@@H](CS)C(=O)N[C@@H](Cc1c[nH]c2ccccc12)C(=O)N[C@@H](CC(C)C)C(=O)N[C@@H](CC(C)C)C(=O)N[C@@H](CC(=O)O)C(=O)N[C@H](C(N)=O)[C@@H](C)O)[C@@H](C)CC)C(=O)O` [compound 64] came in with an EC50 on GIP receptor of 2.82 nM.

Regarding `CCCCCCCCCCCCCCCC(=O)N[C@@H](CCC(=O)NCCCC[C@H](NC(=O)[C@H](CC(=O)O)NC(=O)[C@H](CO)NC(=O)[C@@H](NC(=O)[C@H](Cc1ccccc1)NC(=O)[C@@H](NC(=O)CNC(=O)[C@H](CCC(N)=O)NC(=O)[C@@H](CO)NC(=O)[C@@H](N)Cc1c[nH]cn1)[C@@H](C)O)[C@@H](C)O)C(=O)N[C@@H](CO)C(=O)N[C@@H](CCCCN)C(=O)N[C@@H](Cc1ccc(O)cc1)C(=O)N[C@@H](CC(C)C)C(=O)N[C@@H](CC(=O)O)C(=O)N[C@@H](CCC(=O)O)C(=O)N[C@@H](CCCNC(=N)N)C(=O)N[C@@H](C)C(=O)N[C@@H](C)C(=O)N[C@@H](CCC(N)=O)C(=O)N[C@@H](CC(=O)O)C(=O)N[C@@H](Cc1ccccc1)C(=O)N[C@H](C(=O)N[C@@H](CCC(N)=O)C(=O)N[C@@H](Cc1c[nH]c2ccccc12)C(=O)N[C@@H](CC(C)C)C(=O)N[C@@H](CC(C)C)C(=O)N[C@@H](CC(=O)O)C(=O)NCC(=O)N[C@@H](CCCNC(=N)N)C(=O)NCC(N)=O)C(C)C)C(=O)O` [compound 19], the EC50 was found to be 0.004 nM on glucagon receptor (setting [1]), 0.002 nM on GLP-1 receptor (setting [2]) and 0.812 nM on GIP receptor.

Consider “51 (H[Aib]QGTFTSDYSKYLDEKRA[Aib]EFVC(40K‑TE PEG(4))WLL[Aib]GGPSSGAPPPS-NH2) [compound 51]”, for which the “EC50 (nM) at GIP receptor” value with GIP receptor was “no activity”.

On to “46 (H[Aib]QGTFTSDYSKYLD[Aib]KRA[Aib]EFVC(PEG 40 kDa)WLLDGGPSSGAPPPS-NH2) [compound 46]”, for which, in the experiment with GIP receptor, the “EC50 (nM) at GIP receptor” value is reported as “no activity”.

In the case of “45 (H[Aib]QGTFTSDYSKYLDEKRA[Aib]EFVC(40K‑TE PEG(4))WLLDT-OH) [compound 45]”, in the experiment with GIP receptor, the “EC50 (nM) at GIP receptor” value is recorded as “no activity”.

As to “13 (H[Aib]QGTFTSDYSKYLDEKRA[Aib]EFVC(PEG 40 kDa)WLLDT-NH2) [compound 13]”, the “EC50 (nM) at GIP receptor” value with GIP receptor was “no activity”.
